The values that follow come from ChEMBL document CHEMBL1146272, “Isoindolone derivatives, a new class of 5-HT2C antagonists: synthesis and biological evaluation” (Bioorg Med Chem Lett, 2007).

Data set [1] has as its target T1, 5-hydroxytryptamine receptor 2C (Homo sapiens, UniProt P28335).
T1 sequence (P28335 whole entry): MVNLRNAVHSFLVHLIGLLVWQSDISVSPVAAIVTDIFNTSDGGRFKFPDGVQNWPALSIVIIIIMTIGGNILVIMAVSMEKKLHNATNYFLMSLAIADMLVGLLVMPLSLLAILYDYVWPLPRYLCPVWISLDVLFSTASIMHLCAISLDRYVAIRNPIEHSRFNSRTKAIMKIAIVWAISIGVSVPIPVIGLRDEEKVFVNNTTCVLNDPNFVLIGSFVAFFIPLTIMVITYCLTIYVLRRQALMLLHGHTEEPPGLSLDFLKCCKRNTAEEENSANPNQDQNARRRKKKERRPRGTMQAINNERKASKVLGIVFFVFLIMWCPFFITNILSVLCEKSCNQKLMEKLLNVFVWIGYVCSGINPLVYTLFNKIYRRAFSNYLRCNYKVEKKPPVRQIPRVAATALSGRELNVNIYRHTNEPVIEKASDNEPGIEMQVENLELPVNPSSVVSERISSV
As to the kind of experiment: Displacement of [3H]mesulergine from 5HT2C receptor expressed in HEK293 cells. The class given is cell-based.

For data set [2], the target named is T2, 5-hydroxytryptamine receptor 2A (Homo sapiens, UniProt P28223). The data set is described as follows: Displacement of [3H]ketanserin from 5HT2A receptor expressed in HEK293 cells. The class given is cell-based.
For data set [3], the target named is T3, 5-hydroxytryptamine receptor 2B (Homo sapiens, UniProt P41595). As to the kind of experiment: Displacement of [3H]5-HT from 5HT2B receptor expressed in HEK293 cells. Format: cell-based. (In general: Loss of bound radioactivity is the signal in a displacement assay; it reports binding, not function.)
For data set [4], the target named is T4, 5-hydroxytryptamine receptor 2C (Homo sapiens) (UniProt P28335).
T4 sequence (whole entry): T1 sequence (P28335 whole entry)
As to the kind of experiment: Agonist activity at 5HT2C receptor expressed in HEK293 cells assessed as intracellular calcium mobilisation up to 10 uM. Format: functional, cell-based. On the technique in general: Calcium assays in cells follow changes in intracellular calcium, usually with a dye or a luminescent sensor.

The target of data set [5] is T2, 5-hydroxytryptamine receptor 2A. As to the kind of experiment: Agonist activity at 5HT2A receptor expressed in HEK293 cells assessed as intracellular calcium mobilisation up to 10 uM. Format: functional, cell-based.
In data set [6] the target is T3, 5-hydroxytryptamine receptor 2B. The data set is described as follows: Agonist activity at 5HT2B receptor expressed in HEK293 cells assessed as intracellular calcium mobilisation up to 10 uM. Format: functional, cell-based.
In data set [7] the target is T4, 5-hydroxytryptamine receptor 2C (Homo sapiens). As to the kind of experiment: Antagonist activity at 5HT2C receptor expressed in HEK293 cells assessed as blockade of 5-hydroxytryptamine-induced intracellular calcium mobilisation. Format: functional, cell-based.
The nature of data set [8]: Blood clearance in iv dosed rat. Format: ADME, organism-based. The note with it: whole blood.
Data set [9] can be described thus: Volume of distribution in iv dosed rat. The class given is ADME, organism-based. The note with it: in vivo, read-out: Vdss.

For orientation: Ki means the equilibrium dissociation constant of an inhibitor or competing ligand from its target. A lower Ki goes with higher affinity. What is called pKb is the Kb on a negative log10 scale, so that one unit is a factor of ten. For orientation: clearance means a measure of how efficiently the substance is removed, as volume per time. A lower clearance goes with inefficient removal.

Calls of active or inactive are those of the source. The calls are words filed in the database; no cut-off is given here.

T2 sequence (P28223 whole entry): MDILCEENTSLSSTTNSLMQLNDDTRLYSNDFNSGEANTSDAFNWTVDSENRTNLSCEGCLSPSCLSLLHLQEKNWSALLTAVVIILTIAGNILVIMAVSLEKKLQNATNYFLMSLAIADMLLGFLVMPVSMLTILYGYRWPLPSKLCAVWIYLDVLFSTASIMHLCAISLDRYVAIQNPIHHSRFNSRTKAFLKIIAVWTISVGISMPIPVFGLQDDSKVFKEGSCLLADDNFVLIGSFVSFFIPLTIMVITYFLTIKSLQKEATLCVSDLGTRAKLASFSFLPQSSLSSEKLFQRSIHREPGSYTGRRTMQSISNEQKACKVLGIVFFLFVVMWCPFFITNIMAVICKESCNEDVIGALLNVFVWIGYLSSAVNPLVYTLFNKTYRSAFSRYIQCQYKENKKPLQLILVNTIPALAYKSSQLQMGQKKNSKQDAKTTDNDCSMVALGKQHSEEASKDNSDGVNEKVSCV
T3 sequence (P41595 whole entry): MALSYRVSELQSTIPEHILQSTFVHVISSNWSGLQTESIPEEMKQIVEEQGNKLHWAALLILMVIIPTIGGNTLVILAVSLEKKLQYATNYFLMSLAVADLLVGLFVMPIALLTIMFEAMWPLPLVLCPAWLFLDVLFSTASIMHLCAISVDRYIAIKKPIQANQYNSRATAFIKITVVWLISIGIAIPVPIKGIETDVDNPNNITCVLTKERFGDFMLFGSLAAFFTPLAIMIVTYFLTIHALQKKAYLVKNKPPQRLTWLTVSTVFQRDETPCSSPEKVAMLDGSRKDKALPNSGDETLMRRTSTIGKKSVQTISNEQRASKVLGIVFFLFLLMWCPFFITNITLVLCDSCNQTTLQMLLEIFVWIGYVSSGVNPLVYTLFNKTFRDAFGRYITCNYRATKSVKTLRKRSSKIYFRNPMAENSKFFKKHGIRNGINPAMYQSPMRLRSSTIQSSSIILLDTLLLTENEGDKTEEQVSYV

In the case of `COc1ccc(N2Cc3c(Cl)cccc3C2=O)cc1OCCN1CCCCC1`, the figures for the Ki in data set [1], in data set [2] and in data set [3] were 251 nM, > 7940 nM and > 794 nM, respectively. Moreover, the outcome in data set [4], in data set [5] and in [6] was inactive. Also, the pKb in [7] was found to be 6.
Regarding `COc1ccc(N2Cc3c(c4cc(Cl)ccc4n3C)C2=O)cc1OCCN1CCC(C)CC1`, the outcome in [4], in data set [5] and in data set [6] was inactive.
Turning to `COc1ccc(N2Cc3cc(Cl)cc(Cl)c3C2=O)cc1OCCN1[C@H](C)CCC[C@@H]1C`, the Ki in data set [1] is 6.31 nM; in data set [2] it was 316 nM; in [3] it was 126 nM. Moreover, the outcome in data set [4], in [5] and in data set [6] was inactive.
With `COc1ccc(N2Cc3cc(Cl)cc(Cl)c3C2=O)cc1OCCN1CCC(C)(C)CC1`, the Ki is 2 nM in data set [1], 398 nM in data set [2] and 251 nM in data set [3]. Moreover, the result in data set [4], in [5] and in [6] was inactive.
For the compound `CCOC(=O)c1ccc(N2Cc3ccccc3C2=O)cc1OCCN(CC)CC`, the outcome in [4], in data set [5] and in data set [6] was inactive.
Consider `COc1ccc(N2Cc3cccc(F)c3C2=O)cc1OCCN1CCCCC1`, for which the Ki was 79.4 nM in data set [1], > 10000 nM in data set [2] and > 3160 nM in data set [3]. Further, the outcome in data set [4], in data set [5] and in [6] was inactive.
On to `COc1ccc(N2Cc3cccc(Cl)c3C2=O)cc1OCCN1CCCCC1`, for which the Ki was 3.98 nM in data set [1], 1000 nM in data set [2] and 316 nM in data set [3]. In addition, the result in data set [4], in [5] and in data set [6] was inactive.
`COc1ccc(N2Cc3ccc(Cl)cc3C2=O)cc1OCCN1CCC(C)CC1`: the Ki in data set [1] was 20 nM; in data set [2], 794 nM; in [3] it was > 1000 nM. Moreover, the result in data set [4], in data set [5] and in [6] was inactive.
Consider `COc1ccc(N2Cc3c(Cl)cccc3C2=O)cc1OCCN1CCC(C)CC1`, for which the inhibitory constant (Ki) was 126 nM in [1] and > 1580 nM in data set [2]. Besides, in data set [3] (hek293), the Log Ki was > -6.7. Also, the outcome in data set [4], in data set [5] and in data set [6] was inactive.
Turning to `COc1ccc(N2Cc3ccc(Cl)cc3C2=O)cc1OCCN1CCCCC1`, the Ki was 15.8 nM in data set [1], > 2510 nM in data set [2] and > 1580 nM in [3]. Further, the result in data set [4], in [5] and in [6] was inactive. For the same compound, in [7], the pKb came out at 7.2.
As for `COc1ccc(N2Cc3cccc(Br)c3C2=O)cc1OCCN1CCC(C)CC1`, the Ki was 0.794 nM in data set [1], 631 nM in data set [2] and 158 nM in [3]. The result in data set [4], in data set [5] and in data set [6] was inactive. The pKb in data set [7] came out at 9.3.
Take `COc1ccc(N2Cc3cccc(C(F)(F)F)c3C2=O)cc1OCCN1CCC(C)CC1`: the Ki in data set [1] was 1.58 nM; in data set [2], 631 nM; in data set [3], 501 nM. In addition, the outcome in data set [4], in data set [5] and in data set [6] was inactive.
Regarding `COc1ccc(N2Cc3cc(Cl)cc(Cl)c3C2=O)cc1OCCN1CCCCCC1`, the inhibitory constant (Ki) in data set [1] is 2.51 nM; in data set [2], 631 nM; in data set [3], 200 nM. Besides, the result in data set [4], in [5] and in data set [6] was inactive.
As to `COc1ccc(N2CC=C(c3ccc(Cl)c(Cl)c3)C2=O)cc1OCCN1CCC(C)CC1`, the outcome in data set [4], in data set [5] and in data set [6] was inactive.
As to `COc1ccc(N2Cc3cc(Cl)cc(Cl)c3C2=O)cc1OCCN1CCCCC1C` (stereo not given), the Ki was 10 nM in [1], > 3980 nM in data set [2] and > 2510 nM in [3]. The outcome in data set [4], in [5] and in data set [6] was inactive.
`COc1ccc(N2Cc3cc(Cl)cc(Cl)c3C2=O)cc1OCCN1CCCC(C)C1` (stereo not given): the Ki in data set [1] was 2.51 nM; in data set [2] it was > 1260 nM; in data set [3] it was 126 nM. For the same compound, the outcome in data set [4], in [5] and in data set [6] was inactive.
On to `COc1ccc(N2Cc3cc(F)cc(C(F)(F)F)c3C2=O)cc1OCCN1CCC(C)CC1`, for which the Ki in data set [1] was 0.398 nM; in data set [2], 251 nM; in data set [3], 251 nM. In addition, the result in data set [4], in data set [5] and in [6] was inactive.
On to `COc1ccc(N2Cc3cccc(C#N)c3C2=O)cc1OCCN1CCC(C)CC1`, for which the Ki is 10 nM in data set [1], > 3160 nM in [2] and > 794 nM in data set [3]. Further, the result in data set [4], in [5] and in data set [6] was inactive.
On to `COc1ccc(N2Cc3cc(C)cc(C)c3C2=N)cc1OCCN1CCC(C)CC1`, for which the Ki in [1] was 126 nM; in data set [2], > 3980 nM; in data set [3] it was > 3160 nM. In addition, the result in data set [4], in data set [5] and in [6] was inactive.
As to `COc1ccc(N2Cc3c(F)c(F)cc(Cl)c3C2=O)cc1OCCN1CCC(C)CC1`, the inhibition constant Ki in data set [1] was 2 nM; in data set [2], 501 nM; in data set [3] it was 126 nM. The result in [4], in data set [5] and in data set [6] was inactive.
For the compound `COc1ccc(N2C(=O)c3c(Cl)cccc3C2C)cc1OCCN1CCC(C)CC1` (stereo not given), the inhibition constant (Ki) in [1] was 1.26 nM; in data set [2], > 1260 nM; in data set [3] it was 200 nM. In [8], this compound showed a clearance of 53 mL/min/kg. For the same compound, the Vd in data set [9] was determined as 8.2 L/kg. For the same compound, the result in data set [4], in data set [5] and in [6] was inactive.
For `COc1ccc(N2Cc3cc(Cl)ccc3C2=O)cc1OCCN1CCCCC1`, the Ki is 50.1 nM in [1], > 6310 nM in data set [2] and > 10000 nM in data set [3]. Besides, the result in data set [4], in [5] and in [6] was inactive. Also, the pKb in data set [7] was 6.9.
For `COc1ccc(N2Cc3cccc(C)c3C2=O)cc1OCCN1CCC(C)CC1`, the Ki in [1] is 2.51 nM; in data set [2] it was > 6310 nM; in [3] it was 200 nM. The outcome in data set [4], in data set [5] and in data set [6] was inactive.
On to `COc1ccc(N2Cc3cc(Cl)ccc3C2=O)cc1OCCN1CCC(C)CC1`, for which the values for the Ki in [1], in [2] and in data set [3] were 25.1 nM, > 1000 nM and > 1000 nM, respectively. Besides, the outcome in data set [4], in data set [5] and in data set [6] was inactive.
In the case of `COc1ccc(N2Cc3ccccc3C2=O)cc1OCCN1CCCCC1`, the inhibition constant Ki in data set [1] was 50.1 nM; in [2], > 10000 nM; in data set [3], > 1580 nM. The outcome in [4], in data set [5] and in data set [6] was inactive.
In the case of `COc1ccc(N2Cc3ccc(Cl)c(Cl)c3C2=O)cc1OCCN1CCC(C)CC1`, the figures for the Ki in [1], in data set [2] and in data set [3] were 1 nM, 501 nM and 100 nM, respectively. Besides, the outcome in data set [4], in data set [5] and in [6] was inactive.
Consider `COc1ccc(N2Cc3cc(Cl)cc(Cl)c3C2=O)cc1OCCN1CCOCC1`, for which the Ki in data set [1] was 12.6 nM; in data set [2], > 7940 nM; in [3], > 1000 nM. Also, the outcome in data set [4], in [5] and in data set [6] was inactive.
Take `COc1ccc(N2Cc3cccc(OC)c3C2=O)cc1OCCN1CCCCC1`: the Ki in data set [1] is 200 nM; in data set [2], > 6310 nM; in data set [3], > 7940 nM. In addition, the result in data set [4], in data set [5] and in data set [6] was inactive.
